What was measured:
Format in all cases: cell-based, human
[1] = system: fibroblasts grown in the presence of either HCT 116 cells or HT-29 cells; test: TGF-β pathway inhibitors in fibroblast-cancer cell co-cultures (CAF activation); conditions: for block of CAF activation in coculture (FIG. 2B): BJ fibroblasts with HT-29 cells, TGF-β 1 ng/ml; for activity on CAF phenotypes in co-culture: identical doses to those used in the previous test
Method: (§1) FIG. 2 TGF-β inhibitors perform poorly in co-culture compared to mono-culture. (A) Normal BJ fibroblasts were cultured in either minimal media or alongside HT-29 CRC cancer cells. 6-different TGF-β inhibitors were added alongside TGF-β [1 ng/ml]ligand. […] (B) This is most apparent comparing the effects of three TGF-β inhibitors with varying selectivity.
(§2) In brief, monocultures of BJ or CCD18-Co fibroblasts were stimulated with TGF-β for 48 hours in the presence of serial dilutions of each TGF-β inhibitor and fibroblast activation was assessed by immunofluorescence using αSMA and CD248. The probability of fibroblast activation was assessed by a machine learning model, Multiple Instance Learning (MIL) trained on unstimulated fibroblasts (no drug, no TGF-β) as a negative control, and TGF-β stimulated fibroblasts (with vehicle control) as positive control. For co-culture comparisons, the same fibroblasts were grown in the presence of either HCT 116 cells or HT-29 cells and treated with the same serial dilutions of small molecule TGF-β. For these co-cultures, the addition of exogenous TGF-β is not required as the cancer cells secrete sufficient TGF-β for maximal fibroblast activation. […] This observation was confirmed by CellProfiler analysis where individual fibroblasts were segmented and αSMA and stress-fiber intensity was quantified (FIG. 2A).
We took an mAb inhibitor of TGFBR2, LY3022859, and assessed the performance of this inhibitor in co-culture alongside SIS3 and […], (FIG. 2 B). […] In contrast, both LY364947 and SIS3 were active at identical doses to those used in the previous test. Again, exogenous TGF-β was dispensable for this effect.

[2] = system: fibroblasts (BJ, CCD18-Co); test: Activin A, Activin B and TGF-β dose response for CAF induction in unstimulated fibroblasts; conditions: for IC50 values, 1 hr vs. 48 hr timepoints: BJ or CCD18-Co fibroblast mono-cultures in minimal media (N=2); for phenotypic changes in fibroblasts (SMAD2/3, phospho-CREB, ASMA, Endosialin): BJ-fibroblasts; for EC50 values (fibroblast induction into a CAF like state, composite machine learning score): depending on condition tested, BJ, CCD18-Co, 1 hr and 48 hr; for ASMA score (intensity and number of ASMA filaments) vs. TGF-β treatment: highest dose, 48 hours
Method: FIG. 3 Activin and TGF-β both induce a CAF phenotype in fibroblast cell-lines. […] B) Quantification of ASMA levels and plate coverage further reinforce these changes downstream of addition of both Activin and TGF-β. C) TGF-β and Activin A were added over a range of doses to BJ or CCD18-Co colon fibroblasts grown as mono-cultures in minimal media (N=2). Cells were stained for Actin, Endosialin/CD248, DAPI/Nuclei, and αSMA. Machine Learning (Multiple Instance Learning) models were trained on the highest and lowest doses to generate dose-response curves.
To test whether Activin signaling could induce CAF activation similarly to TGF-β we added serial dilutions (3-fold) of recombinant Activin A ([…] max concentration) and Activin B ([…] max concentration) to unstimulated fibroblasts (BJ, CCD18-Co) to generate dose response curves for Activin A and B. A serial 3-fold dilution of TGF-β was also tested as a positive control ([…] max concentration). A number of high-content markers of CAF activation we used as endpoints. Namely, cells were probed for SMAD2/3 translocation to the nucleus and phospoCREB levels at 1 hr, as a marker of direct ACVR/TGFBR stimulation. ASMA and Endosialin levels were then probed at 48 hrs to quantify CAF induction levels following Activin and TGF-β stimulation. At the highest dose, at 1 hr we saw SMAD 2/3 nuclear translocation alongside phospho-CREB up-regulation, indicating receptor engagement and activity in both Activin and TGF-β treated conditions (FIG. 3A).

[3] = system: BJ or CCD18-Co fibroblasts; test: TGF-β pathway inhibitors in TGF-β stimulated fibroblast monocultures (αSMA/CD248 immunofluorescence, MIL model); conditions: 48 hours
Method: as §1
We then tested the relative potency of a panel of TGF-β pathway inhibitors in monoculture fibroblasts stimulated with TGF-β compared to co-culture with CRC cells that produce their own, similar levels of TGF-β.
as §2, with “control.” for “control. For co-culture comparisons, the same fibroblasts were grown in the presence of either HCT 116 cells or HT-29 cells and treated with the same serial dilutions of small molecule TGF-β. For these co-cultures, the addition of exogenous TGF-β is not required as the cancer cells secrete sufficient TGF-β for maximal fibroblast activation.”

[4] = system: CCD-18Co normal colon fibroblasts; test: Cytokine stimulation of fibroblast monocultures, CAF marker immunofluorescence; conditions: fibroblast monoculture serum-starved 24 hours, stimulated 48 hours, vs untreated fibroblasts
Method: A panel of 5 CAF markers were then used to stain the cultures and the expression levels of expression of the markers calculated from individual segmented fibroblasts.
First, we treated normal human fibroblasts with a panel of cytokines to induce activation, and then assessed CAF marker expression by immunofluorescence. Fibroblast monocultures were serum-starved for 24 hours then stimulated with TGF-β, TNF alpha, PDGFbb, acidic FGF or other cytokines for 48 hours. Cells were then fixed, permeabilized and stained with a panel of immunofluorescent CAF markers and imaged by high-content microscopy.

| Compound | block of CAF activation in coculture (FIG. 2B) [1] | activity on CAF phenotypes in co-culture [1] | IC50 values, 1 hr vs. 48 hr timepoints [2] | phenotypic changes in fibroblasts (SMAD2/3, phospho-CREB, ASMA, Endosialin) [2] | EC50 values (fibroblast induction into a CAF like state, composite machine learning score) [2] [ng/µL] | ASMA score (intensity and number of ASMA filaments) vs. TGF-β treatment [2] | also measured |
| --- | --- | --- | --- | --- | --- | --- | --- |
| COc1cc2c(cc1OC)CN(C(=O)/C=C/c1c(-c3ccccc3)n(C)c3ncccc13)CC2 [SIS3] | able to block CAF activation | active | – | – | – | – | response in co-culture among the inhibitors tested (rightward shift of IC50) [1]: best response; reduction of αSMA levels in coculture ([1]; % of the control, conditions with >5% cell death excluded): more than 50% |
| Activin A: recombinant Activin A | – | – | lower at the 48 hr timepoint in CCD18 colon fibroblasts | induce similar phenotypic changes | 10 to 30 | no difference | – |
| Cc1cccc(-c2nn3c(c2-c2ccnc4ccc(C(N)=O)cc24)CCC3)n1 [LY2157299] | – | – | – | – | – | – | effectiveness in monoculture (inhibition of αSMA) [3]: effective; inhibition of αSMA in co-culture ([1]; even up to 100 μM): very little inhibition |
| TGF-β: TGF-β ligand added as cytokine stimulus and positive control | – | – | lower for 1 hr timepoints vs. 48 hr timepoints | induce similar phenotypic changes | – | – | expression of alpha-smooth muscle actin (αSMA), podoplanin (PDPN) and CD248 [4]: increased expression |
| Activin B: recombinant Activin B | – | – | – | induce similar phenotypic changes | 4 to 9 | no difference | – |
| c1ccc(-c2[nH]ncc2-c2ccnc3ccccc23)nc1 [LY364947] | blocks CAF activation at high doses | active | – | – | – | – | – |

Source: patent publication US20250059267A1, “COMBINATION THERAPY FOR TREATMENT OF TUMORS COMPRISING CANCER-ASSOCIATED FIBROBLASTS” (PHENOMIC AI, priority 2021, published 2025)
